What all share (format): biochemical
In assay [1] the target is T1, ACSF2 (Homo sapiens, UniProt Q96CM8).
T1 construct: purchased Cusabio, China
T1 sequence (Q96CM8 42-615): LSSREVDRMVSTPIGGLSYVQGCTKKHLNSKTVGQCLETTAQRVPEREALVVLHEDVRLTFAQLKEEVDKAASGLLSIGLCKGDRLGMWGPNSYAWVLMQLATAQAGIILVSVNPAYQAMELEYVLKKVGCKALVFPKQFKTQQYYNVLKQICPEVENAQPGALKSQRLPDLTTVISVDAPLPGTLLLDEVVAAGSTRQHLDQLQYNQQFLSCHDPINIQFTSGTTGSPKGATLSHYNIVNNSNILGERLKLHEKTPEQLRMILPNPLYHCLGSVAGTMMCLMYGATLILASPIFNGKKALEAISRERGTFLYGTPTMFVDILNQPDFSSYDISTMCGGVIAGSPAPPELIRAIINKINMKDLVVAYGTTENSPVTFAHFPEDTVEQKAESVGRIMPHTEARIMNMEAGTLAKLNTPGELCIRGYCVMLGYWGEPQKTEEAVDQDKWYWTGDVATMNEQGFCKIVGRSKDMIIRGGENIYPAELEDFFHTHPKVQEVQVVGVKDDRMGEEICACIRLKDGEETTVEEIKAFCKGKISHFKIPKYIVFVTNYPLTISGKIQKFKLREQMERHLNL
The assay can be described thus: Acyl-CoA synthetases selectivity panel: ACSF2. As to conditions: human recombinant protein, substrate octanoate, AMP readout by HPLC; read-out: HPLC based activity assays IC50 (UM) ACSF2. The source says:
(§1) The biochemical assays for testing the selectivity of the compounds according to this invention, were done using human recombinant proteins (Cusabio, China). The readout of the assays was AMP levels, the […] of the reactions, by HPLC method. The acyl substrates (Sigma-Aldrich) of the assays were as followed: ACSS1/ACSS2—Acetate, AACS-Acetoacetyl, ACSF2—Octanoate and ACSL5—Palmitate. The protein in this panel include ACSS1, the closest homolog of ACSS2, in addition to representative short/medium/long chain acyl-CoA syntatases.

For assay [2], the target named is T2, ACSS1 (Homo sapiens, UniProt Q9NUB1).
T2 construct: purchased Cusabio, China
T2 sequence (Q9NUB1 38-689): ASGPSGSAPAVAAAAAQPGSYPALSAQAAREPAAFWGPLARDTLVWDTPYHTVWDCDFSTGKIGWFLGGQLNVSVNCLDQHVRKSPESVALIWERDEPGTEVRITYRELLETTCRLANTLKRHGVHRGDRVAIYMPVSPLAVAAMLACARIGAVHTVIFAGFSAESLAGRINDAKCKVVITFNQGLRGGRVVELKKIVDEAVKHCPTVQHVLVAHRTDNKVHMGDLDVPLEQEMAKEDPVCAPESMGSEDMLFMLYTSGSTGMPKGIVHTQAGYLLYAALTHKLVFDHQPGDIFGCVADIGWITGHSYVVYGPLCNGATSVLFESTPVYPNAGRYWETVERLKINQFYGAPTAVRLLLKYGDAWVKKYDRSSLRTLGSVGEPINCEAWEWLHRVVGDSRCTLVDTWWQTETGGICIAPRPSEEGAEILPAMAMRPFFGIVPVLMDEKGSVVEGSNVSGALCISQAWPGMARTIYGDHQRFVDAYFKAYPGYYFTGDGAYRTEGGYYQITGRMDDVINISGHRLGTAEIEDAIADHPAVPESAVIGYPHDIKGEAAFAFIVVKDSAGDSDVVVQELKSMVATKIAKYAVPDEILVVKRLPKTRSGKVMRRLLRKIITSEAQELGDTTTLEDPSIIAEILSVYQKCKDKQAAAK
The assay can be described thus: Acyl-CoA synthetases selectivity panel: ACSS1. As to conditions: human recombinant protein, substrate acetate, AMP readout by HPLC; read-out: HPLC based activity assays IC50 (UM) ACSS1.
Description: as §1

Assay [3] has as its target T3, AACS (Homo sapiens, UniProt Q86V21).
T3 construct: purchased Cusabio, China
T3 sequence (Q86V21 1-672): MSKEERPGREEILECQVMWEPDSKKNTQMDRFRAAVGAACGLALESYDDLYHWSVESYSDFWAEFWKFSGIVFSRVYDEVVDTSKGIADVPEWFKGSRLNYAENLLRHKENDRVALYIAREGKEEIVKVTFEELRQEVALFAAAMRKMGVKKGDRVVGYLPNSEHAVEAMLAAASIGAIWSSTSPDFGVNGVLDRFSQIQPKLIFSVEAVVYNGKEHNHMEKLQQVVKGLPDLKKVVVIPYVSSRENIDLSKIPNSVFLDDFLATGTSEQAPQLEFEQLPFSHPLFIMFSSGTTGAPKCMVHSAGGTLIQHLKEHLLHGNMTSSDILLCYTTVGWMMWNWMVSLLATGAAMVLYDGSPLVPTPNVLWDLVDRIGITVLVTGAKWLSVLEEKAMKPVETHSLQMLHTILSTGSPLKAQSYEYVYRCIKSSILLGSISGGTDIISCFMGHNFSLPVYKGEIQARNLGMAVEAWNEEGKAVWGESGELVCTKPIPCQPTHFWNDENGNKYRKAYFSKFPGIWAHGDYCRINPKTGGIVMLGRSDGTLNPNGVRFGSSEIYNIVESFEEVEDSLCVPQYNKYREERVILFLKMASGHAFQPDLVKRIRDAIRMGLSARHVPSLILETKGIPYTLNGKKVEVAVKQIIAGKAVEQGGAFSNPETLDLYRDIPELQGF
The assay can be described thus: Acyl-CoA synthetases selectivity panel: AACS. As to conditions: human recombinant protein, substrate acetoacetyl, AMP readout by HPLC; read-out: HPLC based activity assays IC50 (UM) AACS.
Description: as §1

Assay [4] deals with T4, ACSL5 (Homo sapiens, UniProt Q9ULC5).
T4 construct: purchased Cusabio, China
T4 sequence (Q9ULC5 1-683): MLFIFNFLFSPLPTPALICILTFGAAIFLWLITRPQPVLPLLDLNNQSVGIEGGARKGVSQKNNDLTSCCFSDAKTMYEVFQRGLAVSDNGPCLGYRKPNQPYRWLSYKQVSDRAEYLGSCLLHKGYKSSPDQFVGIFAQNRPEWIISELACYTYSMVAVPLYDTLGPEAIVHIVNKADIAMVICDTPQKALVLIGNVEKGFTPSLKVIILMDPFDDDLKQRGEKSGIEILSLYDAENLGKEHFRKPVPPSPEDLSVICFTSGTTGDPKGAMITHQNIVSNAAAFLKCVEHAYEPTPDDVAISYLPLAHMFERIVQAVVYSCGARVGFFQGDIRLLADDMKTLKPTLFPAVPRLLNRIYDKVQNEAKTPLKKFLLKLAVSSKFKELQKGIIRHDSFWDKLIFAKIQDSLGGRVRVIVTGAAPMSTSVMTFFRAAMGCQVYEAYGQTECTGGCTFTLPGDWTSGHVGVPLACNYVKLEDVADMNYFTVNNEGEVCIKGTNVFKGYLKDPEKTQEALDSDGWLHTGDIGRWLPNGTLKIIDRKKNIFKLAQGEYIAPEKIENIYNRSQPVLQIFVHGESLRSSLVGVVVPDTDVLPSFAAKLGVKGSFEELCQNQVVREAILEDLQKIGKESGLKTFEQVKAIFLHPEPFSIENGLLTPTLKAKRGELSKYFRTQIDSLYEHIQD
Description: Acyl-CoA synthetases selectivity panel: ACSL5. Conditions: human recombinant protein, substrate palmitate, AMP readout by HPLC; read-out: HPLC based activity assays IC50 (UM) ACSL5.
Description: as §1

Where only a bound is given, the exact number is not on record here.

For the compound `COC(=O)c1cccc(N2N=C(C)C(C(=O)Nc3cccc(C(C)(F)F)c3)C2=O)c1` (stereo not shown) [compound 261, methyl 3-(4-((3-(1,1-difluoroethyl)phenyl)carbamoyl)-3-methyl-5-oxo-4,5-dihydro-1H-pyrazol-1-yl)benzoate], the IC50 in assay [1] was 46 µM; in assay [2], 1 to 10 µM; in assay [3], 24 µM; in assay [4], above 100 µM.

By IC50 is commonly meant the concentration that gives 50% inhibition.

The record behind these values is patent publication US20250186433A1, “ACSS2 INHIBITORS AND METHODS OF USE THEREOF” (EpiVario, Inc., priority 2017, published 2025).
